# Experimental data published in US9187396B2, “Compositions and methods for the treatment of glomerulonephritis” (Avexxin AS, priority 2009, dated 2015).
# Assays:
# [1] = test system: IIA-sPLA2 protein expression in mesangial cells; test: cytokine-stimulated sPLA2 protein expression and secretion, Western blot; format: cell-based, rat; details: IL-1β (1 nM), supernatants
# Protocol: (§1) FIGS. 2A to 2C show the effect of the inhibitors of the examples on cytokine-stimulated sPLA2 protein (FIG. 2A) and mRNA (FIG. 2B) expression and promoter activity in mesangial cells. Quiescent cells were stimulated with either DMEM (−), or IL-1β (1 nM) in the absence (−) or presence of AKH-217 (etOH), vehicle control. In FIG. 2A, supernatants were taken for protein precipitation and precipitated proteins were separated by SDS-PAGE and subjected to a Western blot analysis using a monoclonal antibody against rat sPLA2. […] In FIG. 2B, cells were taken for RNA extraction and subjected to quantitative PCR analysis of rat IIA-sPLA2 and 18 S RNA. ΔΔCt values were calculated and results are expressed as % of maximal IL-1β-stimulated response and are means+S.D. (n=3). In FIG. 2C, cells were transfected with the sPLA2 promoter construct plus a plasmid coding for the Renilla luciferase. After transfection, cells were stimulated for 24 h with vehicle (−), IL-1β (1 nM), or IL-1β plus 10 μM of AKH-217. sPLA2 promoter activity was calculated and results are expressed as relative luciferase units (RLU) and are means±S.D. (n=3).
# (§2) It has been previously shown that the cytokine-induced PGE2 formation in mesangial cells involves both sPLA2 and cPLA2 activation (Pfeilschifter et al., 1993), we then investigated the effect of the inhibitors above on sPLA2 protein and mRNA expressions. […]
# [2] = test system: IIA-sPLA2 mRNA expression in mesangial cells; test: cytokine-stimulated IIA-sPLA2 mRNA expression, quantitative PCR; format: cell-based, rat; details: IL-1β (1 nM)
# Protocol: as §1, §2
# rat IIA-sPLA2 promoter = test: sPLA2 promoter activity, luciferase reporter gene assay; format: cell-based; details: IL-1β (1 nM) plus 10 μM compound, 24 h
# Protocol: as §1, §2
# [3] = test system: Nitric oxide (NO) formation in rat renal mesangial cells; test: cytokine-stimulated NO formation in mesangial cells (Griess Reaction assay); format: cell-based; details: IL-1β (1 nM), supernatant
# Protocol: Quiescent cells were stimulated with either DMEM (−), IL-1β (1 nM; +), in the absence or presence of the indicated concentrations of AKH-217, AVX002, or AACOCF3. Supernatants were collected and taken for nitric oxide (NO) quantification by using a Griess Reaction assay. Data are expressed as μM of NO in the supernatant and are means±S.D. (n=3).
# To see whether this effect is due to altered gene transcription of iNOS, luciferase reporter gene assays were performed to measure iNOS promoter activity. A 4.5 kb fragment of the rat iNOS promoter was kindly provided by Dr. K. F. Beck (pharmazentrum frankfurt).
# [4] = test system: iNOS protein expression in mesangial cells; test: cytokine-stimulated iNOS protein expression, Western blot; format: cell-based, rat; details: IL-1β (1 nM)
# Protocol: (§3) FIGS. 4A to 4C show the effect of the inhibitors of the examples on cytokine-stimulated iNOS protein (FIG. 4A) and mRNA (FIG. 4B) expression and promoter activity in mesangiai cells. Quiescent cells were stimulated with either vehicle (DMEM), IL-1β (1 nM), in the absence (−) or presence of the indicated concentrations (in μM) of AVX001 and AVX002. EtOH, vehicle control. In FIG. 4A, cells were taken for protein extraction and equal amount of. protein were separated by SDS-PAGE and subjected to a Western blot analysis using a polyclonal antibody against iNOS at a dilution of 1:2000. Data are representative of at least 3 independent experiments giving similar results. In FIG. 4B, cells were taken for RNA extraction and subjected to quantitative PCR analysis of rat iNOS and 18 S RNA. ΔΔCt values were calculated and results are expressed as % of maximal IL-1β response and are means±S.D (n=3). In FIG. 4C, cells were transfected with the rat iNOS promoter construct plus a plasmid coding for the Renilla luciferase. After transfection, cells were stimulated with vehicle (−), IL-1β (1 nM), or IL-1β plus 10 μM of AVX001. iNOS promoter activity was calculated and results are expressed as relative luciferase units (RLU) and are means±S.D.(n=3).
# (§4) To see whether this effect is due to altered gene transcription of iNOS, luciferase reporter gene assays were performed to measure iNOS promoter activity. […]
# rat iNOS promoter = test: iNOS promoter activity, luciferase reporter gene assay; format: cell-based; details: IL-1β (1 nM) plus 10 μM compound
# Protocol: as §3, §4
# mesangial cells = test: [3H]thymidine incorporation in mesangial cells (proliferation); format: cell-based, rat; details: insulin (100 ng/ml), IGF (50 ng/ml) or ATP (100 μM), 24 h
# Protocol: FIGS. 5A and 5B show the effect of the inhibitors of the examples on [^3H]thymidine incorporation in mesangial cells. In FIG. 5A, quiescent cells were stimulated for 24 h with vehicle (DMEM), or 100 μM of ATP in the absence (−) or presence of the indicated concentrations of AVX001 or AVX002, in the presence of [^3H]thymidine. In FIG. 5B, cells were stimulated for 24 h with insulin (100 ng/ml) or IGF (50 ng/ml) in the absence (−) or presence of 10 μM of AVX001 or AVX002, in the presence of [^3H]thymidine. Thymidine incorporated into DNA was determined and results are expressed as % of control and are means±S.D. (n=3). Glomerulonephritis is characterized in a first early phase by increased mesangial apoptosis which in a second phase is replaced by an opposite event, i.e. hyperproliferation of mesangial cells. Many previous studies have shown that quiescent mesangial cells in culture can re-enter the cell cycle when exposed to various growth factors, including PDGF, insulin, insulin-like growth factor (IGF), or extracellular nucleotides such as ATP and UTP. […] In the presence of either AKH217 or AVX002, agonist-stimulated [^3H]thymidine incorporation is reduced (FIGS. 5A and 5B). Similar data were also obtained when cells were stimulated with PDGF.
# phospho-p65 (NFκB) = test: IL-1β-stimulated NFκB activation, phospho-p65 Western blot; format: cell-based, rat; details: IL-1β (2 nM) 30 min, 10 μM compound pretreated 2 h
# Protocol: FIGS. 6A to 6C show the effect of the inhibitors of the examples on IL-1β-stimulated NFκB activation in mesangial cells. In FIG. 6A, quiescent cells were stimulated for 30 min with either vehicle (DMEM), or IL-1β (2 nM) in the absence (−) or presence (+) of AVX001 or AVX002 (10 μM, pretreated 2 h). Thereafter, cell lysates were separated by SDS-PAGE and subjected to a Western blot analysis using a polyclonal antibody against phospho-p65 (NFκB) (upper panel), HuR as a loading control (middle panel), and IκB (lower panel). Data in FIG. 6A show duplicates of one representative experiments. FIGS. 6B and 6C show the densitometric evaluation of NFkB and IkB bands.
# NFkB activation was measured by Western blot analyses by detecting the amount of phospho-p65 which represents the active transcription factor subunit.
compound,measurement,setting,value
CC/C=C\C/C=C\C/C=C\C/C=C\CC/C=C/CSCC(=O)C(F)(F)F [AKH-217],effect on IIA-sPLA2 protein expression and secretion,[1],able to reduce
same,effect on IIA-sPLA2 mRNA expression,[2],able to reduce
same,effect on IL-1β-stimulated sPLA2 promoter activity,rat IIA-sPLA2 promoter,completely reduced
same,effect on IL-1β-stimulated NO formation,[3],reduced in a dose-dependent manner
same,effect on IL-1β-induced iNOS protein expression,[4],down-regulated
same,effect on IL-1β-stimulated iNOS promoter activity,rat iNOS promoter,completely lost
same,effect on agonist-stimulated [3H]thymidine incorporation,mesangial cells,reduced
same,effect on IL-1β-induced increase of phospho-p65,phospho-p65 (NFκB),reduced
